The values that follow are results of earlier work, collected in patent US20190328869A1, “IMMUNOTHERAPEUTIC PRODUCT AND MDSC MODULATOR COMBINATION THERAPY” (Transgene SA, priority 2016, published 2019).

Structures are written as SMILES.

The subject of data set [1] is circulating CD34+ MDSCs. As to conditions: head and neck cancer patients; cited from earlier work.
Data set [2] concerns HBV-specific CD4+ and CD8+ T cells in PBMCs. As to conditions: PBMCs from chronically HBV infected patients; cited from earlier work.
Data set [3] concerns circulating CD33+HLA-DR− MDSCs. The settings on record: patients with metastatic renal cell carcinoma; cited from earlier work.

`C=C1CC[C@H](O)C/C1=C/C=C1\CCC[C@]2(C)[C@@H]([C@H](C)CCCC(C)(C)O)CC[C@@H]12` [25-hydroxyvitamin D3]: in data set [1], the “circulating CD34+ MDSCs” value is reported as “reduced the circulating CD34^+ MDSCs” and the clinical outcome is reported as “failed to improve clinical outcome”.
Regarding `CC1=C(/C=C/C(C)=C/C=C/C(C)=C/C(=O)O)C(C)(C)CCC1` [ATRA, All-trans retinoic acid], the “proliferation and IFN-γ production by HBV-specific CD4+ and CD8+ T cells” value in data set [2] was “restore the proliferation and IFN-γ production”. For the same molecule, the “circulating CD33+HLA-DR− MDSCs” value in data set [3] is “decreased circulating CD33^+HLA-DR^− MDSCs”.
